According to US20050079529A1, “Very large scale immobilized polymer synthesis” (Affymetrix, INC., priority 1989, published 2005):
Square brackets hold non-standard residues; d marks the D form. Ends that are not written are not given here.

Assays:
[1] = test system: anti-dynorphin B murine monoclonal antibody; assay: 4×10 peptide array related to dynorphin B screened with anti-dynorphin B antibody and labeled goat anti-mouse antibody; type: binding; details: FIG. 30
Description: An array of peptides synthesized using the general protection-deprotection technology outlined above. Referring to FIG. 30, the following peptides were synthesized: row 1=RXFKVVT; row 2=RQXFKVVT; row 3=RQXKVVT; and row 4=RXKVVT. In each row, “X” represents a group of four amino acids, which were simultaneously added to the immobilized peptide. The particular group of amino acids used as “X” on a given block are identified by column number as follows: column 1 [G,A,R,K in a ratio 1:1:1:1], column 2 [null]; column 3 [C,M,S,T in the ratio 1:1:1:5]; column 4 [null]; column 5 [F,Y,W,H in the ratio 1:1:1:1]; column 6 [null]; column 7 [D,E,N,Q in the ratio 1:1:1:1]; column 8 [null]; column 9 [V,L,I,P in the ratio 2:1:4:1]; and column 10 [null].
After these peptides were synthesized, they were screened with an anti-dynorphin B murine monoclonal antibody and then exposed to a fluorescently labeled goat anti-mouse antibody. […] Other strongly labeled regions, include column 7, row 1 and column 5, row 3, each of which contains some peptides having the above binding epitope. It should be noted that the varying ratios of some of the amino acids within a given group were necessary to obtain roughly equal binding efficiencies among the four amino acids.

[2] = test system: anti-dynorphin B monoclonal antibody; assay: Dynorphin B deletion peptide array, relative binding of anti-dynorphin B monoclonal antibody by fluorescence intensity
Description: The binding epitope on dynorphin B for the anti-dynorphin B antibody described above was determined by deleting various amino acids and combinations of amino acids from the overall sequence of dynorphin B. The peptides containing these various deletions were prepared on a substrate by the general protection-deprotection methods described above. Then the substrate was exposed to the anti-dynorphin B monoclonal antibody and a fluorescence image was produced as shown in FIG. 33.
From the intensity distribution contained in this plot, it was possible to determine the relative binding affinity to various of the peptides.

Herz antibody = assay: Array of sixteen amino acid sequences, relative binding to Herz antibody by fluorescence; parameters: species or system mouse; details: FIG. 17
Description: Using techniques similar to those set forth above, an array of 16 different amino acid sequences (replicated four times) was synthesized on each of two glass substrates. The sequences were synthesized by attaching the sequence NVOC-GFL across the entire surface of the slides. Using a series of masks, two layers of amino acids were then selectively applied to the substrate. Each region had dimensions of 0.25 cm×0.0625 cm. The first slide contained amino acid sequences containing only L amino acids while the second slide contained selected D amino acids. FIGS. 15A and 15B illustrate a map of the various regions on the first and second slides, respectively. The patterns shown in FIGS. 15A and 15B were duplicated four times on each slide. The slides were then exposed to the Herz antibody and fluorescein-labeled goat anti-mouse.
FIG. 16 is a fluorescence plot of the first slide, which contained only L amino acids. Light shading indicates strong binding (149,000 counts or more) while black indicates little or no binding of the Herz antibody (20,000 counts or less). The bottom right-hand portion of the slide appears “cut off” because the slide was broken during processing. […]
FIG. 17 is a fluorescence plot of the second slide. […]
Table 2 lists the various sequences tested in order of relative fluorescence, which provides information regarding relative binding affinity. […]

Row | Substance | fluorescence labeling of array region [1] | RELATIVE INTENSITY ([2]; mean ± spread over N synthesis sites) | RELATIVE INTENSITY, value in parentheses (ADJUSTED) ([2]; second value in parentheses) | binding of Herz antibody, second slide (selected D amino acids) (Herz antibody)
1 | RQFKVVT | brightest region | 93.6 ± 10.0 | (96.2 ± 7.1) | 
2 | YpGFL: SEQ ID NO:24; lower case letters represent D-amino acids (Y[dP]GFL) |  |  |  | Significant binding
